Experiment [1] relates to JAK1-dependent STAT6 phosphorylation downstream of IL-13 stimulation, BEAS-2B human bronchial epithelial cells. In words: JAK1 pathway assay in cell lines: IL-13 stimulated STAT6 phosphorylation in BEAS-2B cells (MSD). The experiment is classed as cell-based. To be noted: IL-13 stimulation 15 min at EC90, read-out: IL-13 p-STAT6 BEAS-2B IC50. On the procedure:
JAK1 Pathway Assay in Cell Lines was Carried Out as Follows:
Inhibitor potency (EC50) was determined in cell-based assays designed to measure JAK1 dependent STAT phosphorylation. As noted above, inhibition of IL-4, IL-13, and IL-9 signaling by blocking the Jak/Stat signaling pathway can alleviate asthmatic symptoms in pre-clinical lung inflammation models (Mathew et al., 2001, J Exp Med 193(9): 1087-1096; Kudlacz et. al., 2008, Eur J. Pharmacol 582(1-3): 154-161).
In one assay approach, TF-1 human erythroleukemia cells obtained from the American Type Culture Collection (ATCC; Manassas, Va.) were used to measure JAK1-dependent STAT6 phosphorylation downstream of IL-13 stimulation. Prior to use in the assays, TF-1 cells were starved of GM-CSF overnight in OptiMEM medium (Life Technologies, Grand Island, N.Y.) supplemented with 0.5% charcoal/dextran stripped fetal bovine serum (FBS), 0.1 mM non-essential amino acids (NEAA), and 1 mM sodium pyruvate. The assays were run in 384-well plates in serum-free OptiMEM medium using 300,000 cells per well. In a second assay approach, BEAS-2B human bronchial epithelial cells obtained from ATCC were plated at 100,000 cells per well of a 96-well plate one day prior to the experiment. The BEAS-2B assay was run in complete growth medium (bronchial epithelial basal medium plus bulletkit; Lonza; Basel, Switzerland).
Test compounds were serially diluted 1:2 in DMSO and then diluted 1:50 in medium just before use. Diluted compounds were added to the cells, for a final DMSO concentration of […], and incubated for 30 m (for the TF-1 assay) or […] (for the BEAS-2B assay) at 37° C. Then, cells were stimulated with human recombinant cytokine at their respective EC90 concentrations, as previously determined for each individual lot. Cells were stimulated with IL-13 (R&D Systems, Minneapolis, Minn.) for 15 min at 37° C. The TF-1 cell reactions were stopped by the direct addition of 10× lysis buffer (Cell Signaling Technologies, Danvers, Mass.), whereas the BEAS-2B cell incubations were halted by the removal of medium and addition of 1× lysis buffer. The resultant samples were frozen in the plates at −80° C. Compound mediated inhibition of STAT6 phosphorylation was measured in the cell lysates using MesoScale Discovery (MSD) technology (Gaithersburg, Md.).

The target of experiment [2] is T1, isolated recombinant JAK2 kinase domain (Homo sapiens, UniProt O60674).
T1 construct: isolated recombinant JAK1 and JAK2 kinase domain
In words: JAK enzyme assay, JAK2 kinase domain (Caliper LabChip). To be noted: 0.2 nM JAK2, ATP 25 μM, Morrison tight binding model. The experiment is classed as biochemical. How it is done: (§1) JAK Enzyme Assays were Carried Out as Follows:
(§2) The activity of the isolated recombinant JAK1 and JAK2 kinase domain was measured by monitoring phosphorylation of a peptide derived from JAK3 ([…] fluorescently labeled on the N-terminus with 5-carboxyfluorescein) using the Caliper LabChip® technology (Caliper Life Sciences, Hopkinton, Mass.). To determine inhibition constants (K), compounds were diluted serially in DMSO and added to 50 μL kinase reactions containing purified enzyme (1.5 nM JAK1, or 0.2 nM JAK2), 100 mM HEPES buffer (pH 7.2), 0.015% Brij-35, 1.5 μM peptide substrate, ATP (25 μM), 10 mM MgCl2, 4 mM DTT at a final DMSO concentration of 2%.
(§3) Reactions were incubated at 22° C. in 384-well polypropylene microtiter plates for 30 minutes and then stopped by addition of 25 µL of an EDTA containing solution (100 mM HEPES buffer (pH 7.2), 0.015% Brij-35, 150 mM EDTA), resulting in a final EDTA concentration of 50 mM. After termination of the kinase reaction, the proportion of phosphorylated product was determined as a fraction of total peptide substrate using the Caliper LabChip® 3000 according to the manufacturer's specifications. K values were then determined using the Morrison tight binding model (Morrison, J. F., Biochim. Biophys. Acta. 185:269-296 (1969); William, J. W. and Morrison, J. F., Meth. Enzymol., 63:437-467 (1979)) modified for ATP-competitive inhibition [Ki=Ki, app/(1+[ATP]/Km,app)].

Experiment [3] has as its target T2, isolated recombinant JAK1 kinase domain (Homo sapiens, UniProt P23458).
T2 construct: isolated recombinant JAK1 and JAK2 kinase domain
In words: JAK enzyme assay, JAK1 kinase domain (Caliper LabChip). Type of experiment: biochemical. To be noted: 1.5 nM JAK1, ATP 25 μM, Morrison tight binding model. On the procedure: as §1, §2, §3

Read-outs that look alike come from different tables or passages of the source.

Broadly, the IC50 is the concentration that inhibits the measured activity by half. By Ki is commonly meant a measure of affinity in units of concentration, obtained from inhibition or displacement.

T2 sequence (P23458 875-1153 limits assumed): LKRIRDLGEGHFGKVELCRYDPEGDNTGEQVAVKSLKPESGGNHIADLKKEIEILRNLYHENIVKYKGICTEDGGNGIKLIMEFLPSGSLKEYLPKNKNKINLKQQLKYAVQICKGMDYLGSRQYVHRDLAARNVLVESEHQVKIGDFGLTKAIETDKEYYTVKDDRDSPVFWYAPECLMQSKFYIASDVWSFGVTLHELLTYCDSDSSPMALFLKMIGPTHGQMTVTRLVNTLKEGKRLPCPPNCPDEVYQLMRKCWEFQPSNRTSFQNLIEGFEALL
T1 sequence (O60674 849-1124 limits assumed): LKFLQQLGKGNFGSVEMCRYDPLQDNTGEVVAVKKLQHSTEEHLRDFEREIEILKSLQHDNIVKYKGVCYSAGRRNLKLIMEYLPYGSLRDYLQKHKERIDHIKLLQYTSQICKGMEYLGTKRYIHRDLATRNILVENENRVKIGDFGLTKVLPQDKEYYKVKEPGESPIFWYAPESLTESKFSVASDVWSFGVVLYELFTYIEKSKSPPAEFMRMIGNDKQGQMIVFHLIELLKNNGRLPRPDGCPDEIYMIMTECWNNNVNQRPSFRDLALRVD

`CSc1ccc(OC(F)F)c(-c2nn(C3CCOC3=O)cc2NC(=O)c2cnn3cccnc23)c1` (single isomer, unassigned) [Example 29, N-[3-[2-(difluoromethoxy)-5-methylsulfanyl-phenyl]-1-(2-oxotetrahydrofuran-3-yl)pyrazol-4-yl]pyrazolo[1,5-a]pyrimidine-3-carboxamide]: the IC50 in experiment [1] (Homo sapiens, BEAS-2B, […]) was found to be 9.2 nM. In addition, the Ki worked out at 0.15 nM in experiment [2] and 0.3 nM in experiment [3].

In the case of `CSc1ccc(OC(F)F)c(-c2nn(C3CCOC3=O)cc2NC(=O)c2cnn3cccnc23)c1` (single isomer, unassigned) [Example 30, N-[3-[2-(difluoromethoxy)-5-methylsulfanyl-phenyl]-1-(2-oxotetrahydrofuran-3-yl)pyrazol-4-yl]pyrazolo[1,5-a]pyrimidine-3-carboxamide], the IC50 in experiment [1] came out at 11 nM. Further, the Ki in experiment [2] came out at 0.096 nM; in experiment [3], 0.15 nM.

As for `O=C(Nc1cn(C2CCOC2=O)nc1-c1cc(SC(F)F)ccc1OC(F)F)c1cnn2cccnc12` (single isomer, unassigned) [Example 31, N-[3-[2-(difluoromethoxy)-5-(difluoromethyl-sulfanyl)phenyl]-1-(2-oxotetrahydrofuran-3-yl)pyrazol-4-yl]pyrazolo[1,5-a]pyrimidine-3-carboxamide], the IC50 in experiment [1] came to 16 nM. Besides, the inhibition constant (Ki) in experiment [2] came out at 0.4 nM; in experiment [3], 0.7 nM.

Turning to `O=C(Nc1cn(C2CCOC2=O)nc1-c1cc(SC(F)F)ccc1OC(F)F)c1cnn2cccnc12` (single isomer, unassigned) [Example 32, N-[3-[2-(difluoromethoxy)-5-(difluoromethyl-sulfanyl)phenyl]-1-(2-oxotetrahydrofuran-3-yl)pyrazol-4-yl]pyrazolo[1,5-a]pyrimidine-3-carboxamide], in experiment [1], the IC50 came out at 6.6 nM. In addition, the figures for the Ki in experiment [2] and in experiment [3] were 0.11 nM and 0.17 nM, respectively.

Regarding `O=C(Nc1cn(C2CCOC2=O)nc1-c1cc(OC(F)F)ccc1OC(F)F)c1cnn2cccnc12` (single isomer, unassigned) [Example 36, N-[3-[2,5-bis(difluoromethoxy)phenyl]-1-(2-oxotetrahydrofuran-3-yl)pyrazol-4-yl]pyrazolo[1,5-a]pyrimidine-3-carboxamide], the IC50 in experiment [1] (Homo sapiens, BEAS-2B, […]) amounted to 18 nM. Besides, the Ki in experiment [2] came to 0.4 nM; in experiment [3] it was 0.65 nM.

Turning to `O=C(Nc1cn(C2CCOC2=O)nc1-c1cc(OC(F)F)ccc1OC(F)F)c1cnn2cccnc12` (single isomer, unassigned) [Example 37, N-[3-[2,5-bis(difluoromethoxy)phenyl]-1-(2-oxotetrahydrofuran-3-yl)pyrazol-4-yl]pyrazolo[1,5-a]pyrimidine-3-carboxamide], the half-inhibitory concentration (IC50) in experiment [1] was 14 nM. The Ki in experiment [2] turned out to be 0.18 nM; in experiment [3] it was 0.26 nM.

For `CS(=O)(=O)c1ccc(OC(F)F)c(-c2nn(C3CCOC3=O)cc2NC(=O)c2cnn3cccnc23)c1` (single isomer, unassigned) [Example 40, N-[3-[2-(difluoromethoxy)-5-methylsulfonyl-phenyl]-1-(2-oxotetrahydrofuran-3-yl)pyrazol-4-yl]pyrazolo[1,5-a]pyrimidine-3-carboxamide], the IC50 in experiment [1] (Homo sapiens, BEAS-2B, […]) stood at 120 nM. For the same compound, the Ki in experiment [2] came to 0.62 nM; in experiment [3] it was 1.1 nM.

Take `CS(=O)(=O)c1ccc(OC(F)F)c(-c2nn(C3CCOC3=O)cc2NC(=O)c2cnn3cccnc23)c1` (single isomer, unassigned) [Example 41, N-[3-[2-(difluoromethoxy)-5-methylsulfonyl-phenyl]-1-(2-oxotetrahydrofuran-3-yl)pyrazol-4-yl] pyrazolo[1,5-a]pyrimidine-3-carboxamide]: the IC50 in experiment [1] came out at 99 nM. In addition, the results for the Ki in experiment [2] and in experiment [3] were 0.23 nM and 0.4 nM, respectively.

On to `CN1CC[C@H](n2cc(NC(=O)c3cnn4cccnc34)c(-c3cc(Cl)ccc3OC(F)F)n2)C1=O` (stereo in doubt) [Example 2, N-[3-[5-chloro-2-(difluoromethoxy)phenyl]-1-[rac-(3S)-1-methyl-2-oxo-pyrrolidin-3-yl]pyrazol-4-yl]pyrazolo[1,5-a]pyrimidine-3-carboxamide], for which the IC50 in experiment [1] (Homo sapiens, BEAS-2B, […]) was determined as 12 nM. Also, the Ki worked out at 0.4 nM in experiment [2] and 0.21 nM in experiment [3].

Take `CN1CC[C@@H](n2cc(NC(=O)c3cnn4cccnc34)c(-c3cc(Cl)ccc3OC(F)F)n2)C1=O` (stereo in doubt) [Example 3, N-[3-[5-chloro-2-(difluoromethoxy)phenyl]-1-[rac-(3R)-1-methyl-2-oxo-pyrrolidin-3-yl]pyrazol-4-yl]pyrazolo[1,5-a]pyrimidine-3-carboxamide]: the IC50 in experiment [1] (Homo sapiens, BEAS-2B, […]) was found to be 50 nM. Besides, the Ki in experiment [2] is 0.81 nM; in experiment [3], 2.5 nM.

Take `Cn1[nH]cc(-n2cc(NC(=O)c3cnn4cccnc34)c(-c3cc(Cl)ccc3OC(F)F)n2)c1=O` [Example 26]: the IC50 in experiment [1] (Homo sapiens, BEAS-2B, […]) stood at 280 nM. Moreover, the Ki in experiment [2] turned out to be 0.14 nM; in experiment [3], 1.4 nM.

These data come from US20200339604A1, “PYRAZOLOPYRIMIDINE COMPOUNDS AS JAK INHIBITORS” (Genentech, Inc., priority 2018, published 2020).
